Measured values reported in US20040167165A1, “Methods of treating conditions associated with an Edg-7 receptor” (priority 2003, published 2004).

Columns and labels:
[1] = molecular target: T1, human Edg 7 receptors (Homo sapiens, UniProt Q9UBY5); experiment: LPA-stimulated calcium mobilization (FLIPR) in HTC cells expressing Edg-7; type: cell-based
T1 construct: expressed in transfected cells; host or cells: HTC rat hepatoma cells
T1 sequence (Q9UBY5 1-353): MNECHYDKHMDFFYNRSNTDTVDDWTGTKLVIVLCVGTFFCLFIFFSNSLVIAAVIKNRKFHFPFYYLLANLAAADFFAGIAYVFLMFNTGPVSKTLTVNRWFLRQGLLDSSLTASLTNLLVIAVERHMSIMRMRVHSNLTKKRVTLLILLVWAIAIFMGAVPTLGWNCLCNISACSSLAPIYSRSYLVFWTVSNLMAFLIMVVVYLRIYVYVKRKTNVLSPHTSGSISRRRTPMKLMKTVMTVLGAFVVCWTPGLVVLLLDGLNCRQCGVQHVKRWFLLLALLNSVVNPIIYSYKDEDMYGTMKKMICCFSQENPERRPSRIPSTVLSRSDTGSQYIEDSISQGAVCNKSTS
Procedure: The compounds were tested in HTC cells expressing human Edg 7 receptors, as well as in HT1080 human fibrosarcoma cell lines that naturally express Edg 7 receptors. […] The compounds are tested in this recombinant system first, and subsequently tested in cell lines expressing Edg-7 (in addition to other Edg receptors).
LPA receptors such as Edg-7, couple to calcium effector pathways, and result in increases in intracellular calcium following receptor activation (An, 1998, J. Cell. Biochem Supp. 30-31:147-157). This biological response lends itself to a very efficient, high-throughput screen using a Fluorescence Imaging Plate Reader (FLIPR; Molecular Devices, Sunnyvale, Calif.). The FLIPR system is a real-time, cell-based assay system with continuous fluorescence detection using a cooled CCD camera. The FLIPR system was used to developing an Edg-7 receptor screen. Rat hepatoma cells stably expressing Edg-7 receptor were plated on 384-well plates and loaded with a calcium dye loading kit (Molecular Devices, Sunnyvale, Calif.) for 1 hour at room temperature. Cells were then placed on the FLIPR^384 (Molecular Devices, Sunnyvale, Calif.) and excited by an argon laser at 488 nm. The data for the entire 384-well plate was updated every second. An integrated robotic pipettor allowed for simultaneous compound addition into each individual well in the plate.

[2] = molecular target: T2, Edg-2 (Homo sapiens, UniProt Q92633); experiment: LPA-stimulated calcium increases in HTC cells expressing Edg-2; type: cell-based; details: concentrations as high as 10 μM
T2 construct: expressed in transfected cells; host or cells: HTC rat hepatoma cells

[3] = system: Edg4; experiment: LPA-stimulated calcium increases in HTC cells expressing Edg4; type: cell-based; details: concentrations as high as 10 μM
[4] = molecular target: T3, Edg-1 (Homo sapiens, UniProt P21453); experiment: S1P-stimulated calcium increases in HTC cells expressing Edg-1; type: cell-based; details: concentrations as high as 10 μM
T3 construct: expressed in transfected cells; host or cells: HTC rat hepatoma cells

[5] = molecular target: T4, Edg-3 (Homo sapiens, UniProt Q99500); experiment: S1P-stimulated calcium increases in HTC cells expressing Edg-3; type: cell-based; details: concentrations as high as 10 μM
T4 construct: expressed in transfected cells; host or cells: HTC rat hepatoma cells

[6] = molecular target: T5, Edg-5 (Homo sapiens, UniProt O95136); experiment: S1P-stimulated calcium increases in HTC cells expressing Edg-5; type: cell-based; details: concentrations as high as 10 μM
T5 construct: expressed in transfected cells; host or cells: HTC rat hepatoma cells

[7] = molecular target: T6, Edg-8 (Homo sapiens, UniProt Q9H228); experiment: S1P-stimulated calcium increases in HTC cells expressing Edg-8; type: cell-based; details: concentrations as high as 10 μM
T6 construct: expressed in transfected cells; host or cells: HTC rat hepatoma cells

[8] = system: targets, including GPCRs and ion channels; experiment: Pharmacology profiling: radioligand binding assays on non-Edg targets; details: Section 6.10 panel: adrenergic α1, α2, β, angiotensin AT2, calcium channel Type L, dopamine D2L, endothelin ETA, histamine H1, muscarinic, serotonin 5-HT1; significance criteria ≧50%
Procedure: In order to test the selectivity of compounds, various enzyme assays as well as radioligand binding assays were performed using numerous non-Edg receptor targets as listed below.
A radioligand binding assay was performed using adrenergic α1 according to the method of Greengrass and Bremner 1979, Eur. J. Pharmacol. 55:323-326. A radioligand binding assay was performed using adrenergic α2 according to the method of Boyajian and Leslie, 1987, J. Pharmacol. Exp. Ther. 241:1092-1098. A radioligand binding assay was performed using adrenergic β according to the method of Feve et al., 1994, Proc. Natl. Acad. Sci. USA 91:5677-5681. A radioligand binding assay was performed using angiotensin AT2 according to the method of Whitebread et al., 1991, Biochem. Biophys. Res. Comm. 181:1365-1371. A radioligand binding assay was performed using calcium channel Type L, dihydropyridine according to the method of Ehlert et al., 1982, Life Sci. 30:2191-2202. A radioligand binding assay was performed using dopamine D2L according to the method of Bunzo et al., 1988, Nature 336:783-787. A radioligand binding assay was performed using endothelin ETA according to the method of Mihara et al., 1994, J. Phrmacol. Exp Ther. 268:1122-1127. A radioligand binding assay was performed using histamine H1 Central according to the method of Hill et al., 1978, J. Neurochem. 31:997-1004. […]

T3 sequence (P21453 whole entry): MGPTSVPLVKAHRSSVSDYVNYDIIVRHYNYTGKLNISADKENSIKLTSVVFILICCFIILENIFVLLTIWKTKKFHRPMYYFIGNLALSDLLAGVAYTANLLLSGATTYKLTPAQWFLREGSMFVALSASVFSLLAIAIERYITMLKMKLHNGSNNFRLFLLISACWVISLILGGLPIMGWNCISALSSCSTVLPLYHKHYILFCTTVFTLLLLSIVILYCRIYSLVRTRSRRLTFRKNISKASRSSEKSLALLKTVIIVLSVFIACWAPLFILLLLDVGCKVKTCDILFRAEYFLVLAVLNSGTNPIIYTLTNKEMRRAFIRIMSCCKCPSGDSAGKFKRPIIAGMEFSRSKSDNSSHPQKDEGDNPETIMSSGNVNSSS
T2 sequence (Q92633 whole entry): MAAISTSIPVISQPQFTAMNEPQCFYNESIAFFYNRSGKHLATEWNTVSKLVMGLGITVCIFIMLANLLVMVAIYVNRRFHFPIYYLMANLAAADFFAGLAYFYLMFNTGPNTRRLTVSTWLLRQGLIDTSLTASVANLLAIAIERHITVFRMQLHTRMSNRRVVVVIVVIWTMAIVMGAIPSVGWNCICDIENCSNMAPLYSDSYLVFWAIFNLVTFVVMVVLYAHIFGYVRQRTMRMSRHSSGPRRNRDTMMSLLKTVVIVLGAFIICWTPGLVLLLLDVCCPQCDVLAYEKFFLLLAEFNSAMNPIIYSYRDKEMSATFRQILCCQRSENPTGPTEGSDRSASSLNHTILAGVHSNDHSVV
T5 sequence (O95136 whole entry): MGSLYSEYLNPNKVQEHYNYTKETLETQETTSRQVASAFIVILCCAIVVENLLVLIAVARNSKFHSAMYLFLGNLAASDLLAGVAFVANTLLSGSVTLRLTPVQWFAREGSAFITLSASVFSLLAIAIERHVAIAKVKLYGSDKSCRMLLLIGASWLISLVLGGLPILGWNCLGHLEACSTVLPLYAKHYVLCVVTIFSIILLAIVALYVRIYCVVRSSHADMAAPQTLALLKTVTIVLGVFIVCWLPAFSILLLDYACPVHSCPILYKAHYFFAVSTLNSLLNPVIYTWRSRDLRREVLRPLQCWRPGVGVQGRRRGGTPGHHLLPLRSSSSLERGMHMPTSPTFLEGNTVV
T4 sequence (Q99500 whole entry): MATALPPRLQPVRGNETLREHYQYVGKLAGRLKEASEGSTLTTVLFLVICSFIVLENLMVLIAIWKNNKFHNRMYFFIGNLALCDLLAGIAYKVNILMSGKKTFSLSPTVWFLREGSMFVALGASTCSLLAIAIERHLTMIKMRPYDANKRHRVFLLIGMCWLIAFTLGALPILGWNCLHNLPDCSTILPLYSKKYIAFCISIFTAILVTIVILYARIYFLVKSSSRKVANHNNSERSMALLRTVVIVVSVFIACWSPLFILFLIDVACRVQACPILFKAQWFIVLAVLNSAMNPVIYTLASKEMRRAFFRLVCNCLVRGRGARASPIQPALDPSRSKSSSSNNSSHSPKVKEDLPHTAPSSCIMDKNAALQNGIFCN
T6 sequence (Q9H228 whole entry): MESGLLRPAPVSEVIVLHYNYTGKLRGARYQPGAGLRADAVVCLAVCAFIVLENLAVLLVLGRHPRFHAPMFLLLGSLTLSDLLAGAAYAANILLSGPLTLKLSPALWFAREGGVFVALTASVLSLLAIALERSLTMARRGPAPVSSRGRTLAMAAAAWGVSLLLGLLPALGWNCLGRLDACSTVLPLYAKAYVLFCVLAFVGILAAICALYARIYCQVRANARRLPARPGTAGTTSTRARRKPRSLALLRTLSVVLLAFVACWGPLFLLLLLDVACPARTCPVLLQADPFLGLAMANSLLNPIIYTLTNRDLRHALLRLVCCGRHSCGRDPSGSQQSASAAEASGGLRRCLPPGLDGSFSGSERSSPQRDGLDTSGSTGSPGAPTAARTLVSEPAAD

| SMILES | inhibition of the Edg-7 receptor ([1]; FIG. 1, HTC cells) | inhibition of Edg-7 stimulated LPA responses ([1]; HTC cells expressing human Edg 7 receptors, as well as HT1080 human fibrosarcoma cell lines) | inhibition of LPA-stimulated calcium increases [2] | inhibition of LPA-stimulated calcium increases [3] | inhibition of S1P-stimulated calcium increases [4] | inhibition of S1P-stimulated calcium increases [5] | inhibition of S1P-stimulated calcium increases [6] | inhibition of S1P-stimulated calcium increases [7] | activity in radioligand binding assays [8] | melting point [°C] |
| --- | --- | --- | --- | --- | --- | --- | --- | --- | --- | --- |
| CCOC(=O)c1c(NC(=O)NS(=O)(=O)c2ccccc2Cl)sc2c1CCCC2 [Compound 101] | specifically inhibit | demonstrate inhibition | did not inhibit | did not inhibit | did not inhibit | did not inhibit | did not inhibit | did not inhibit | no significant activity | – |
| COc1ccc(-c2nc3ccc(C(=O)O)cc3nc2-c2ccc(OC)cc2)cc1 [Compound 129, 2,3-bis-(4-Methoxyphenyl)quinoxaline-6-carboxylic acid] | – | – | – | – | – | – | – | – | – | 284 to 285 |
| Cc1cc(C)c2c(c1)Cc1ccccc1S2(=O)=O [Compound 133, 2,4-Dimethyl-9H-thioxanthene 10,10-dioxide] | – | – | – | – | – | – | – | – | – | 103 to 105 |
